{
  "source": "PubChem BioAssay AID1963438",
  "about": "(Molecular Pharmacology Branch, DTP, NCI, 2024)",
  "test_system": "NCI-H510 multicellular tumor spheroid growth, % test/control",
  "test": "Anticancer human tumor NCI-H510 cell line growth inhibition [Asc];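 note: spheroids exposed to agents for 7 days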;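 for viability, T/C: 100% = DMSO vehicle control wells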",
  "settings": "for pIC50: curve of first compound; for viability, T/C: stronger effect = lower value",
  "outline": "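Concentration series start at each agent's clinical Cmax, or at 10 microM when none is established, and drop in half-log steps; agents are applied alone or together to complex spheroids built with HUVEC and hMSC.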",
  "note": "pIC50: −log10 of the molar value.",
  "data": [
    {"compound": "Cc1nc(N2CCC3(CC2)COC(C)C3N)c(CO)nc1Sc1ccnc(N)c1Cl", "note": "(stereo not given) + Cc1c(S(C)(=O)=O)c(-c2cc(F)cc(N3CCN(c4ccc(NS(=O)(=O)c5ccc(NC(CCN6CCC(C(=O)OCCCP(=O)(O)O)CC6)CSc6ccccc6)c(S(=O)(=O)C(F)(F)F)c5)cc4)CC3)c2)c(-c2ccc(Cl)cc2)n1C(C)C", "values": [
      {"measurement": "pIC50", "setting": "second compound 0.1 µM", "value": "< 5.52"},
      {"measurement": "pIC50", "setting": "second compound 0.316 µM", "value": "< 5.52"},
      {"measurement": "pIC50", "setting": "second compound 1 µM", "value": "< 5.52"},
      {"measurement": "pIC50", "setting": "second compound 3.16 µM", "value": "< 5.52"},
      {"measurement": "pIC50", "setting": "second compound 10 µM", "value": "< 5.52"},
      {"measurement": "viability, T/C", "setting": "second compound 0.1 µM, first compound 0.00949 µM", "value": 126, "unit": "%"},
      {"measurement": "viability, T/C", "setting": "second compound 0.1 µM, first compound 0.03 µM", "value": 122, "unit": "%"},
      {"measurement": "viability, T/C", "setting": "second compound 0.1 µM, first compound 0.0949 µM", "value": 112, "unit": "%"},
      {"measurement": "viability, T/C", "setting": "second compound 0.1 µM, first compound 0.3 µM", "value": 111, "unit": "%"},
      {"measurement": "viability, T/C", "setting": "second compound 0.1 µM, first compound 0.949 µM", "value": 128, "unit": "%"},
      {"measurement": "viability, T/C", "setting": "second compound 0.1 µM, first compound 3 µM", "value": 117, "unit": "%"},
      {"measurement": "viability, T/C", "setting": "second compound 0.316 µM, first compound 0.00949 µM", "value": 125, "unit": "%"},
      {"measurement": "viability, T/C", "setting": "second compound 0.316 µM, first compound 0.03 µM", "value": 130, "unit": "%"},
      {"measurement": "viability, T/C", "setting": "second compound 0.316 µM, first compound 0.0949 µM", "value": 136, "unit": "%"},
      {"measurement": "viability, T/C", "setting": "second compound 0.316 µM, first compound 0.3 µM", "value": 127, "unit": "%"},
      {"measurement": "viability, T/C", "setting": "second compound 0.316 µM, first compound 0.949 µM", "value": 111, "unit": "%"},
      {"measurement": "viability, T/C", "setting": "second compound 0.316 µM, first compound 3 µM", "value": 132, "unit": "%"},
      {"measurement": "viability, T/C", "setting": "second compound 1 µM, first compound 0.00949 µM", "value": 92.8, "unit": "%"},
      {"measurement": "viability, T/C", "setting": "second compound 1 µM, first compound 0.03 µM", "value": 139, "unit": "%"},
      {"measurement": "viability, T/C", "setting": "second compound 1 µM, first compound 0.0949 µM", "value": 122, "unit": "%"},
      {"measurement": "viability, T/C", "setting": "second compound 1 µM, first compound 0.3 µM", "value": 102, "unit": "%"},
      {"measurement": "viability, T/C", "setting": "second compound 1 µM, first compound 0.949 µM", "value": 118, "unit": "%"},
      {"measurement": "viability, T/C", "setting": "second compound 1 µM, first compound 3 µM", "value": 130, "unit": "%"},
      {"measurement": "viability, T/C", "setting": "second compound 3.16 µM, first compound 0.00949 µM", "value": 132, "unit": "%"},
      {"measurement": "viability, T/C", "setting": "second compound 3.16 µM, first compound 0.03 µM", "value": 128, "unit": "%"},
      {"measurement": "viability, T/C", "setting": "second compound 3.16 µM, first compound 0.0949 µM", "value": 137, "unit": "%"},
      {"measurement": "viability, T/C", "setting": "second compound 3.16 µM, first compound 0.3 µM", "value": 123, "unit": "%"},
      {"measurement": "viability, T/C", "setting": "second compound 3.16 µM, first compound 0.949 µM", "value": 119, "unit": "%"},
      {"measurement": "viability, T/C", "setting": "second compound 3.16 µM, first compound 3 µM", "value": 118, "unit": "%"},
      {"measurement": "viability, T/C", "setting": "second compound 10 µM, first compound 0.00949 µM", "value": 133, "unit": "%"},
      {"measurement": "viability, T/C", "setting": "second compound 10 µM, first compound 0.03 µM", "value": 123, "unit": "%"},
      {"measurement": "viability, T/C", "setting": "second compound 10 µM, first compound 0.0949 µM", "value": 125, "unit": "%"},
      {"measurement": "viability, T/C", "setting": "second compound 10 µM, first compound 0.3 µM", "value": 94, "unit": "%"},
      {"measurement": "viability, T/C", "setting": "second compound 10 µM, first compound 0.949 µM", "value": 114, "unit": "%"},
      {"measurement": "viability, T/C", "setting": "second compound 10 µM, first compound 3 µM", "value": 95.2, "unit": "%"}
    ]}
  ]
}
